The values that follow come from patent publication US20180111949A1, “NOVEL INDUSTRIAL CRYSTALLIZATION METHOD OF CEFUROXIME SODIUM AND PREPARATION THEREOF” (HAINAN LINGKANG PHARMACEUTICAL CO., LTD, priority 2016, published 2018).

Where “and” joins values, the source holds several entries; their conditions need not be identical. Equal values may be shown once.

The nature of data set [1]: pH, quality research per Chinese Pharmacopoeia 2010 Part 2. The data set is classed as physicochemical. Particulars: crystalline powder. On the procedure:
(§1) Referring to the quality standard of the raw material in “Part 2 of Chinese Pharmacopoeia 2010 Edition”, the quality research on crystalline powder of Cefuroxime Sodium was conducted in Example 1˜4 and Comparative Example 1, and the results were shown as follows: […]

Data set [2] is described as follows: Bacterial endotoxin, quality research per Chinese Pharmacopoeia 2010 Part 2. The note with it: compliance with pharmacopoeia standard. On the procedure: as §1
Data set [3] can be described thus: Clarity of the solution, quality research per Chinese Pharmacopoeia 2010 Part 2. Format: physicochemical. Particulars: compliance with pharmacopoeia standard. On the procedure: as §1
The nature of data set [4]: Color of the solution, quality research per Chinese Pharmacopoeia 2010 Part 2. The data set is classed as physicochemical. Particulars: compliance with pharmacopoeia standard. The procedure:
as §1

Data set [5] in a line: Abnormal toxicity, quality research per Chinese Pharmacopoeia 2010 Part 2. The note with it: compliance with pharmacopoeia standard. The procedure: as §1
Data set [6] is described as follows: Flowability test, angle of repose by funnel method. The data set is classed as physicochemical. Particulars: refined Cefuroxime Sodium prepared in Example 1. The procedure: In order to examine the flowability of the refined Cefuroxime Sodium prepared in Example 1, the angle of repose was measured by a funnel method. Test method: The particles were placed in a fixed funnel, and were […] freely to a horizontal plane to form a disk-shaped stacked body with a bottom radius of r, and the height of the stacked body was measured as H. The results were calculated according to the equation of tan θ=H/r and were shown in the following table: […]

For data set [7] the following is noted: cited from earlier work.

As for `CO/N=C(\C(=O)N[C@@H]1C(=O)N2C(C(=O)[O-])=C(COC(N)=O)CS[C@H]12)c1ccco1.[Na+]` [Example 2, Cefuroxime Sodium], the pH result in data set [1] is on record as “pH = 7.5”. In data set [2], the Bacterial endotoxin entry is listed as “Compliance”. Further, the “Clarity of the solution” value in data set [3] is reported as “Compliance”. The “Color of the solution” value in data set [4] is reported as “Compliance”. The Abnormal toxicity result in data set [5] is “Compliance”.

Take `CO/N=C(\C(=O)N[C@@H]1C(=O)N2C(C(=O)[O-])=C(COC(N)=O)CS[C@H]12)c1ccco1.[Na+]` [Example 3, Cefuroxime Sodium]: the pH result in data set [1] is “pH = 7.4”. Moreover, the Bacterial endotoxin entry in data set [2] is given as “Compliance”. For the same compound, the “Clarity of the solution” value in data set [3] is given as “Compliance”. Besides, the “Color of the solution” value in data set [4] is listed as “Compliance”. Also, in data set [5], the Abnormal toxicity entry was “Compliance”.

Take `CO/N=C(\C(=O)N[C@@H]1C(=O)N2C(C(=O)[O-])=C(COC(N)=O)CS[C@H]12)c1ccco1.[Na+]` [Example 1, Cefuroxime Sodium]: the pH result in data set [1] is “pH = 7.3”. Further, the Bacterial endotoxin result in data set [2] is recorded as “Compliance”. For the same compound, in data set [3], the “Clarity of the solution” value is “Compliance”. Moreover, the “Color of the solution” value in data set [4] is “Compliance”. Besides, the Abnormal toxicity result in data set [5] is on record as “Compliance”.

As for `CO/N=C(\C(=O)N[C@@H]1C(=O)N2C(C(=O)[O-])=C(COC(N)=O)CS[C@H]12)c1ccco1.[Na+]` [Cefuroxime Sodium, Sodium (6R, 7R)-7-[2-furyl (methoxyimino)acetylamino]-3-carbamoyloxymethyl-8-oxo-5-thia-1-azabicyclo [4.2.0]oct-2-ene-2-carboxylate], in data set [6] (average of three measurements), the “Angle of repose θ, average value” is given as 26.1°. For the same compound, the “Angle of repose θ” value in data set [6] (single measurements, funnel method) was 25.9° and 26.1° and 26.2°. The Solubility in chloroform entry in data set [7] (chloroform) is given as “insoluble”. Further, the Solubility in ethanol entry in data set [7] (ethanol) is on record as “insoluble”. For the same compound, in data set [7] (methanol), the Solubility in methanol entry is listed as “slightly soluble”. In addition, the Solubility in water entry in data set [7] (water) was “soluble”.

In the case of `CO/N=C(\C(=O)N[C@@H]1C(=O)N2C(C(=O)[O-])=C(COC(N)=O)CS[C@H]12)c1ccco1.[Na+]` [Comparative Example 1, Cefuroxime Sodium], the pH entry in data set [1] was “pH = 7.5”. The Bacterial endotoxin entry in data set [2] is given as “Compliance”. In data set [3], the “Clarity of the solution” value is on record as “Compliance”. In data set [5], the Abnormal toxicity result is reported as “Compliance”.

Turning to `CO/N=C(\C(=O)N[C@@H]1C(=O)N2C(C(=O)[O-])=C(COC(N)=O)CS[C@H]12)c1ccco1.[Na+]` [Example 4, Cefuroxime Sodium], the pH result in data set [1] is “pH = 7.0”. The Bacterial endotoxin entry in data set [2] is “Compliance”. For the same compound, the “Clarity of the solution” value in data set [3] was “Compliance”. Further, the “Color of the solution” value in data set [4] is “Compliance”. Besides, the Abnormal toxicity result in data set [5] was “Compliance”.
